Test [1] has as its system C. difficile isolates. Put plainly: Phytochemical microbial killing assay, diverse C. difficile isolates. Type of test: cell-based, Clostridioides difficile. How it is done:
FIG. 3B provides a heatmap of growth of 20 Clostridioides difficile isolates in the absence of presence of the polyphenolic glycoside polydatin or the Bacteroides liberated aglycone resveratrol. […] Growth induction or inhibition is measured as the ratio of growth in media (AUC) supplemented with glucose and 150 μM polydatin or resveratrol versus growth in media (AUC) supplemented with glucose and vehicle. Value>1 is representative of enhanced growth in compound and value <1 is representative of inhibition of growth in compound.
Bacterial isolates were grown in vitro in media plus compound. Killing was measured by bacterial culture optical density (proxy for amount of bacteria in a culture).
Phytochemical microbial killing assays: All gut pathogen isolates were grown on brain-heart-infusion supplemented with hemin (50 mg/L) and vitamin K1 (0.25 mg/L) (BHIS) agar plates or in basal media (BSG; proteose peptone (20 g/L), yeast (5 g/L), NaCl (5 g/L), glucose (5 g/L), potassium phosphate dibasic (5 g/L), cysteine (0.5 g/L), hemin (50 mg/L), and vitamin K1 (0.25 mg/L). Isolates were recovered on and grown in pre-reduced media in a Coy anaerobic chamber (Coy Labs). To determine the fitness effects of phloridzin hydrate (TCI), phloretin (TCI), polydatin (TCI), and resveratrol (TCI) on enteric pathogen fitness, each pathogen isolate was recovered on a BHIS agar plate and incubated anaerobically at 37 °C for 48 h. A starter culture (1 mL) of BSG was inoculated with C. difficile and grown for 15 h. This starter culture was then used to inoculate a BSG sub-culture (1 mL) at a final dilution of 1:10. This sub-culture was grown for 3 h to an OD600~0.5 before being used to inoculate experimental cultures at a final dilution of 1:50. The experimental media consisted of a modified YCFA media (mYCFA; casitone (2.5 g/L), yeast extract (0.625 g/L), cysteine (0.5 g/L), magnesium sulfate heptahydrate (f.c. 365 μM), calcium chloride dihydrate (f.c. 610 μM), sodium bicarbonate (4 g/L), dipotassium phosphate (0.45 g/L), monopotassium phosphate (0.45 g/L), sodium chloride (0.9 g/L), sodium acetate (2.71 g/L), Hemin (50 mg/L), Vitamin K1 (0.25 mg/L), ferrous sulfate (4 μg/mL), ATCC vitamin mix (1% v/v)) supplemented with glucose (15 mM, Sigma) plus each compound (150 μM) or glucose (15 mM, Sigma) plus DMSO (0.15%, Sigma). Bacterial growth was monitored by measuring the optical density at 600 nm (OD600) of each culture in a 384 well plate with an Epoch2 spectrophotometer (BioTek Instruments) and MicroPlate stacker (Agilent BioTek) for 24 hours.

Test [2] has as its system B. uniformis AgshD. In words: In vitro aglycone liberation by B. uniformis gshD deletion mutant (LC-MS). As to conditions: role: substrate; B. uniformis AgshD (FIGS. 5A, 5B). On the set-up: species or system Bacteroides uniformis ATCC 8492. How it is done:
FIGS. 5A and 5B show microbiome-mediated polyphenol aglycone liberation. […] Step 2: Spent media was filter-sterilized. Step 3: C. difficile was grown in spent media from either vehicle or polydatin (top).
Generation of Bacteroides gene deletion mutants: Clean deletion mutants were created by allelic replacement whereby Bacteroides uniformis ATCC 8492 gshD (BACUNI_00919)was deleted. A modified pKNOCK-bla-ermGb suicide vector, pKNOCK-bla-ermGb_pheS*, that was previously engineered with a counter-selection system mediated by a variant phenylalanyl-tRNA synthetase (PheSA303G), lethal in the presence of 4-chloro-phenylalanine was leveraged. To generate deletion constructs, 1 kb regions flanking the genomic region-of-interest were amplified by PCR (Platinum SuperFi PCR Master Mix), purified, and cloned into the pKNOCK-bla-ermGb_pheS* plasmid in a three-piece ligation reaction. To mobilize resulting plasmids into Bacteroides, a triparental mating strategy was implemented. Overnight cultures of Bacteroides grown in BSG were diluted 50-fold into fresh pre-reduced BSG and grown to early exponential phase (OD600 ~0.1). The recipient strain was centrifuged at 4,000 rpm for 5 minutes and resuspended in 200 μL of 1× PBS. One-day-old E. coliDH5α lambda pir donor strain and E. coliDH5α helper strain with pRK 231 were scrapped from LB agar plates into 200 μL of 1× PBS. […]

“Also recorded” adds a separate entry of the source.

For `OC[C@H]1O[C@@H](Oc2cc(O)cc(/C=C/c3ccc(O)cc3)c2)[C@H](O)[C@@H](O)[C@@H]1O` [polydatin], the “growth inhibition of Clostridioides difficile” value in test [1] (150 μM, 20 C. difficile isolates, growth ratio (AUC) vs vehicle (FIG. 3B)) is “did not; also recorded: but not its parent glycoside polydatin”. Besides, in test [1] (in vitro, media plus compound, culture optical density (FIG. 4)), the “killing / growth inhibition of diverse C. difficile isolates” value is listed as “did not”. Also, the “liberation of resveratrol from polydatin by gshD mutant” value in test [2] was “lacking the ability to metabolize polydatin; also recorded: ablated in B. uniformis AgshD”.

The record behind these values is patent US20260364124A1, “ANTI-C. DIFFICILE SMALL MOLECULE METABOLITES FROM DIET AND GUT MICROBIOME” (The Children's Medical Center Corporation, priority 2023, published 2026).
